According to patent publication US9896659B2, “Methods, kits, and compositions for stem cell self-renewal” (STOWERS INSTITUTE FOR MEDICAL RESEARCH, priority 2011, dated 2018):

Experiments:
[1] = tested on: Lin^−, CD34^+, CD38^− cells; assay: Long-term ex vivo culture of human umbilical cord blood MNCs, Lin^− CD34^+ CD38^− cells by flow cytometry; format: cell-based; conditions: 6 weeks culture in STL media; 500 nM 5-Aza-2′-deoxycytidine or 1 μM SR1; relative to STL base media
Description: Cells were cultured in STL media, which consists of the following: StemSpan SFEM media (Stem Cell Technologies, Vancouver, Canada) supplemented with 10 μg/ml heparin (Sigma, St. Louis, Mo.), 0.5× Penicillin/Streptomycin (Sigma, St. Louis, Mo.), 10 ng/ml recombinant human (rh) SCF, 20 ng/ml rh-Tpo (Biovision, Inc., Mountain View, Calif.), and 2 mM lithium chloride (LiCl).
Mononuclear cells (MNCs) were isolated from human umbilical cord blood (UCB) and cultured in STL media (activating both Wnt/β-catenin and PI3K/Akt signaling), STL+StemRegenin1 (SR1), or STL+DNMT inhibitor (DNMTi) and analyzed by flow cytometry. […] 1 μM SR1 (Cellagen Technologies, San Diego, Calif.) or 500 nM of DNMTi (5-Aza-2′-deoxycytidine, A3656, Sigma, St. Louis, Mo.) was added where indicated. DNMTi was prepared fresh in DMSO and added from the start of the culture. 24 hours later, about 75% of media was changed using fresh DNMT inhibitor. 60 hours after culture began, no additional DNMT inhibitor was added during media changes.

NSG recipients = assay: Repopulation of NSG recipients by cultured human UCB cells; format: in vivo; conditions: STL media + 15 nM Decitabine, brief exposure; 12 weeks post-secondary transplant
Description: 600 HSCs (lineage negative, CD34^+, CD38^− cells) were sorted from human UCB and transplanted into sub-lethally irradiated (3.25 Gy) NSG recipients or cultured for 2 weeks in STL media prior to transplantation. MNCs containing 600 HSCs were also cultured equivalently and transplanted. The uncultured MNC group is not shown due to morbidity of transplant recipients.
MNCs were isolated from human UCB and cultured in STL media or STL media with the DNA methyltransferase inhibitor (DNMTi), Decitabine, added at the concentration of 15 nM. DNMTi was prepared fresh in DMSO and added 12 hours after the start of the culture. Media containing Decitabine was replaced with freshly prepared media every 24 hours two more times. 72 hours after adding Decitabine initially, Decitabine was removed from the culture.
For the transplant experiments, MNCs isolated from human UCB were cultured in media activating the PI3K/Akt pathway (ST media), ST media with StemRegenin1 (SR1), media activating both the PI3K/Akt and Wnt/β-catenin pathways (STL media), or STL media+DNMTi for 14 days. The cultured progeny of 2×10^5 MNCs per recipient were transplanted into sub-lethally irradiated (3.25 Gy) NSG recipients. […] 12 weeks post-secondary transplant, human donor cells repopulation was determined (FIG. 36B).

LSK Flk2^− cells [2] = assay: 10-day culture of bone marrow MNCs with PI3K inhibitor, CHIR99021 or without insulin, expansion of LSK Flk2^− cells; format: cell-based, mouse
LSK Flk2^− cells [3] = assay: Ex vivo culture of sorted LSK Flk2^− cells with GSK-3β and PTEN inhibitors, expansion by FACS; format: cell-based, mouse
Description: LSK or LSK Flk2^− cells were sorted into 96-well U-bottom tissue culture plates at 100 cells/well with 200 μl media/well. Cells were incubated at 37° C., 5% O2, 5% CO2 (balance N2) for the indicated number of days. One-half total volume of media (see Table 1, below for the base media) was carefully pipetted from the top and replaced with fresh media every other day.
One hundred LSK Flk2^− cells were sorted from wild-type (C57Bl/6) mice and cultured in (1) media, (2) media+1 μM CHIR99021 (a GSK-3β inhibitor, a gift from Dr. Sheng Ding), (3) media+200 nM Dipotassium Bis-peroxo(picolinato)oxovanadate (BpV(pic), a PTEN inhibitor, available from Calbiochem, Cat. No. 203705), (4) media+1 μM CHIR99021+200 nM BpV(pic), (5) media+200 nM Shikonin (also a PTEN inhibitor, available from Calbiochem, Cat. No. 565850), and (6) media+200 nM Shikonin+1 μM CHIR99021. (FIGS. 3B-C). Cells were cultured as described above. Cells were examined at 17 days of culture (FIG. 3B, original magnification 100×) and 23 days (FIG. 3C, original magnification 40×).
LSK Flk2^− cells at 28 days culture in the indicated media conditions were examined (FIG. 3D, original magnification 200×).
FACS analysis of 28 day LSK Flk2^− cells cultured in media+BpV(pic)+CHIR99021 (FIG. 3E) was performed. Cells were pre-gated on live, lineage negative cells.
Fold expansion of LSK Flk2^− cells after 28 days culture in (1) media, (2) media+BpV(pic), (3) media+CHIR99021, and (4) media+CHIR99021+BpV(pic) were analyzed.
Cells cultured for 9 days in (1) media, (2) media+BpV(pic) (200 nM), (3) media+CHIR99021 (100 nM), and (4) media+CHIR99021 (100 nM)+BpV(pic) (200 nM) were re-sorted for LSK Flk2^− cells, and fold expansion of LSK Flk2^− cells after 9 days culture in the indicated conditions was determined (FIG. 3I).
FACS analysis was performed on 9 day LSK Flk2^− cells cultured in media+BpV(pic) (200 nM)+CHIR99021 (100 nM) (FIG. 3J). Cells were pre-gated on live, lineage negative cells.

[4] = tested on: lethally irradiated (10 Gy) CD45.1^+ recipient mice; assay: Transplantation of cultured sorted LSK Flk2^− cells into lethally irradiated recipients, donor engraftment; format: in vivo, mouse; conditions: 28-day cultures, 1000 re-sorted LSK Flk2^− cells + 2×10^5 competitor cells; peripheral blood 4 weeks post-transplant
Description: Cells were harvested from the wells prior to transplantation by pipetting up and down several times before transferring to a fresh tube. Residual was then collected by adding more media and repeating. Cells were washed in DMEM (Invitrogen, Cat. No. 31053) without phenol red and added to the appropriate number of whole bone marrow rescue cells from a congenic donor (for 200,000 rescue cells+1,000 re-sorted LSK Flk2^− cells (FIGS. 3F-H) or the non-adherent product of 10 days culture of 100 LSK Flk2^− cultured cells (FIGS. 3I-K) per mouse as indicated). […]
Repopulation was measured at 4 weeks post-transplant by collection of peripheral blood, red blood cell lysis, and staining of CD45.1 (recipient) compared to CD45.2 (donor) engraftment using antibodies purchased from eBiosciences (FITC conjugated CD45.2 (Cat. No. 11-0454-85) and PE-Cy5 conjugated CD45.1 (Cat. No. 15-0453-82)). […] Multi-lineage reconstitution was determined by CD3, B220 (for lymphoid) and Gr1, Mac-1 (for myeloid), as described above.
Cells cultured for 28 days in (1) media, (2) media+BpV(pic), (3) media+CHIR99021 and (4) media+CHIR99021 (1 μM)+BpV(pic) (200 nM) were re-sorted for LSK Flk2^− cells. […] At 4 weeks post-transplant, peripheral blood was analyzed for donor (FIG. 3G) and multi-lineage (FIG. 3H) engraftment. […]

LSK Flk2^− cells [5] = assay: 14-day ex vivo expansion of bone marrow MNCs in ST media with or without GSK3β inhibitor, FACS; format: cell-based, mouse; conditions: Tpo or SCF alone; data not shown

Molecule: Nc1ncn([C@H]2C[C@H](O)[C@@H](CO)O2)c(=O)n1 [Decitabine, 5-Aza-2′-deoxycytidine]
- Human UCB-derived HSC expansion in long-term ex vivo culture [1]: human UCB-derived HSC expansion is enhanced
- Expansion of functional, primitive human HSCs in serial transplant recipients (NSG recipients): further enhanced

Molecule: Cn1c(=O)n(-c2ccc(C(C)(C)C#N)cc2)c2c3cc(-c4cnc5ccccc5c4)ccc3ncc21 [NVP-BEZ235]
- Effect on the ability of CHIR99021 to enhance expansion (LSK Flk2^− cells [2]; 10 days culture with 250 nM CHIR99021 plus PI3K inhibitor): ability of CHIR99021 to enhance expansion was negated by PI3K inhibition
- Expansion of LSK Flk2^− cells (LSK Flk2^− cells [2]; 10 days culture, 250 nM CHIR99021, NVP-BEZ235 at indicated concentrations): decreased the ability of LSK Flk2^− cells to expand in a dose-dependent manner

Molecule: CC(C)n1cnc2c(NCCc3ccc(O)cc3)nc(-c3csc4ccccc34)nc21 [SR1]
- Human UCB-derived HSC expansion in long-term ex vivo culture [1]: did not enhance overall HSC expansion in long-term cultures

Molecule: Dipotassium Bis-peroxo(picolinato)oxovanadate [BpV(pic)]
- Expansion of LSK cells compared to control (photographs) (LSK Flk2^− cells [3]; 17 and 23 days culture, 1 μM CHIR99021, 200 nM BpV(pic)): greater expansion of LSK cells
- Expansion of LSK Flk2^− cells compared to media without inhibitor (LSK Flk2^− cells [3]; 28 days culture): significant expansion
- Mice showing >1% engraftment [4]: 0/10

Molecule: SCF: recombinant Stem Cell Factor, cytokine
- HSC expansion with a single cytokine alone (LSK Flk2^− cells [5]): could not expand HSCs in culture

Molecule: Tpo: recombinant Thrombopoietin, cytokine
- HSC expansion with a single cytokine alone (LSK Flk2^− cells [5]): could not expand HSCs in culture

Molecule: insulin: recombinant human insulin in StemSpan media, a major stimulator of the PI3K/Akt pathway
- Dependence of phenotypic HSC expansion on medium component (LSK Flk2^− cells [2]; ST media with or without insulin, 10 days): expansion of phenotypic HSCs is dependent on insulin
